Laboratory results as given in ChEMBL document CHEMBL5625227, “Discovery and optimization of 2,3-diaryl-1,3-thiazolidin-4-one-based derivatives as potent and selective cytotoxic agents with anti-inflammatory activity” (Eur J Med Chem, 2023).
Calls of active or inactive are those of the source. The rule behind the calls is not given here.

Tests used:
HT-29 [1] = assay: Induction of cell cycle arrest in human HT-29 cells assessed as increase the number of cells at S phase at 0.500 uM incubated for 24 hrs by propidium iodide staining based flow cytometry analysis relative to control; assay type: functional; conditions: dose 0.5 µM
HT-29 [2] = assay: Induction of apoptosis in human HT-29 cells assessed as accumulation of cells at necrotic stage at 0.5 uM incubated for 24 hrs by Annexin V-FITC/propidium iodide staining based flow cytometry analysis (reference value: 8.1%); assay type: functional
Rattus norvegicus [3] = assay: Antiinflammatory activity against carrageenan-induced paw edema Sprague-Dawley rat model assessed as inhibition of paw edema by measuring edema thickness at 50 mg/kg, po measured after 3 hrs (reference value: 1.41 +/- 0.13 mm); assay type: functional
Rattus norvegicus [4] = assay: Antiinflammatory activity against carrageenan-induced paw edema Sprague-Dawley rat model assessed as inhibition of inflammation at 50 mg/kg, po after 1 hr relative to control; assay type: functional; design: scale not given: the % may be the effect or the level left
[5] = Selectivity index, ratio of IC50 for cytotoxicity against human MRC5 cells to IC50 for cytotoxicity against human HT-29 cells; conditions: MRC5 cells versus HT-29 cells
Rattus norvegicus [6] = assay: Antiinflammatory activity against carrageenan-induced paw edema Sprague-Dawley rat model assessed as inhibition of paw edema by measuring edema thickness at 50 mg/kg, po measured after 1 hr (reference value: 0.71 +/- 0.03 mm); assay type: functional
[7] = Acute ulcerogenic activity in Sprague-Dawley male rat assessed as ulcer index at 50 mg/kg/day, po administered for 3 days; assay type: toxicity, organism-based; conditions: in vivo, 72 h, time 3 day
[8] = Acute ulcerogenic activity in Sprague-Dawley male rat assessed as change in normal keratinized gastric mucosa at 50 mg/kg/day, po administered for 3 days by hematoxylin and eosin staining method; assay type: toxicity, organism-based, Stomach; conditions: in vivo, 72 h, time 3 day
[9] = Acute ulcerogenic activity in Sprague-Dawley male rat assessed as average severity of ulcers at 50 mg/kg/day, po administered for 3 days; assay type: toxicity, organism-based; conditions: in vivo, 72 h, time 3 day
HT-29 [10] = assay: Induction of apoptosis in human HT-29 cells assessed as accumulation of cells at late apoptotic stage at 0.5 uM incubated for 24 hrs by Annexin V-FITC/propidium iodide staining based flow cytometry analysis (reference value: 0.2%); assay type: functional
HT-29 [11] = assay: Anti-migration activity in human HT-29 cells assessed as suppression in cell migration at 0.500 uM incubated 48 hrs by wound-healing assay; assay type: functional, cell-based; conditions: dose 0.5 µM
Ehrlich [12] = assay: Antitumor activity against mouse Ehrlich solid carcinoma cells bearing adult male swiss albino mouse assessed as decrease in tumor volume at 50 mg/kg, po administered every other day and observed at 13 days; assay type: functional, organism-based; conditions: time 13.0 day
HT-29 [13] = assay: Induction of apoptosis in human HT-29 cells assessed as accumulation of cells at early apoptotic stage at 0.5 uM incubated for 24 hrs by Annexin V-FITC/propidium iodide staining based flow cytometry analysis (reference value: 0.1%); assay type: functional
Ehrlich [14] = assay: Antitumor activity against mouse Ehrlich solid carcinoma cells bearing adult male swiss albino mouse assessed as decrease in tumor weight at 50 mg/kg, po administered every other day and observed at 14 days; assay type: functional, organism-based; conditions: time 14.0 day
HT-29 [15] = assay: Anticlonogenic activity against human HT-29 cells assessed as reduction in number of colonies at 0.500 uM incubated for 24 hrs by clonogenic survival assay; assay type: functional, cell-based; conditions: dose 0.5 µM
Ehrlich [16] = assay: Antitumor activity against mouse Ehrlich solid carcinoma cells bearing adult male swiss albino mouse assessed as tumor growth inhibition at 50 mg/kg, po administered every other day and observed at 13 days relative to control; assay type: functional; conditions: 312 h, time 13 day, read-out: TGI
Ehrlich [17] = assay: Antitumor activity against mouse Ehrlich solid carcinoma cells bearing adult male swiss albino mouse assessed as decrease in tumor volume at 50 mg/kg, po administered every other day and observed at 5 days; assay type: functional, organism-based; conditions: time 5.0 day
HT-29 [18] = assay: Cytotoxicity against human HT-29 cells assessed as inhibition in cell growth incubated for 72 hrs by MTT assay; assay type: functional, cell-based; conditions: HT-29, 72 h
[19] = Selectivity index, ratio of IC50 for cytotoxicity against human MRC5 cells to IC50 for cytotoxicity against human MCF7 cells; conditions: MRC5 cells versus MCF7 cells
MCF7 = assay: Cytotoxicity against human MCF7 cells assessed as inhibition in cell growth incubated for 72 hrs by MTT assay; assay type: functional, cell-based; conditions: MCF7, 72 h
Ehrlich [20] = assay: Antitumor activity against mouse Ehrlich solid carcinoma cells bearing adult male swiss albino mouse assessed as decrease in tumor volume at 50 mg/kg, po administered every other day and observed at 9 days; assay type: functional, organism-based; conditions: time 9.0 day
[21] = Acute ulcerogenic activity in Sprague-Dawley male rat assessed as congestion in submucosa at 50 mg/kg/day, po administered for 3 days by hematoxylin and eosin staining method; assay type: toxicity, organism-based, Stomach; conditions: in vivo, 72 h, time 3 day
[22] = Acute ulcerogenic activity in Sprague-Dawley male rat assessed as incidence of ulcer/10 animal at 50 mg/kg/day, po administered for 3 days; assay type: toxicity, organism-based; conditions: in vivo, 72 h, time 3 day
Rattus norvegicus [23] = assay: Antiinflammatory activity against carrageenan-induced paw edema Sprague-Dawley rat model assessed as inhibition of paw edema by measuring edema thickness at 50 mg/kg, po measured after 5 hrs (reference value: 1.39 +/- 0.11 mm); assay type: functional
Rattus norvegicus [24] = assay: Antiinflammatory activity against carrageenan-induced paw edema Sprague-Dawley rat model assessed as inhibition of inflammation at 50 mg/kg, po after 5 hrs relative to control; assay type: functional; design: scale not given: the % may be the effect or the level left
[25] = Acute ulcerogenic activity in Sprague-Dawley male rat assessed as change in hyperactive glands at 50 mg/kg/day, po administered for 3 days by hematoxylin and eosin staining method; assay type: toxicity, organism-based, Stomach; conditions: in vivo, 72 h, time 3 day
[26] = Acute ulcerogenic activity in Sprague-Dawley male rat assessed as average number of ulcers at 50 mg/kg/day, po administered for 3 days; assay type: toxicity, organism-based; conditions: in vivo, 72 h, time 3 day
[27] = Cytotoxicity against human MRC5 cells assessed as inhibition in cell growth incubated for 72 hrs by MTT assay; assay type: toxicity, cell-based
[28] = Acute ulcerogenic activity in Sprague-Dawley male rat assessed as congestion in edema at 50 mg/kg/day, po administered for 3 days by hematoxylin and eosin staining method; assay type: toxicity, organism-based; conditions: in vivo, 72 h, time 3 day
HT-29 [29] = assay: Induction of apoptosis in human HT-29 cells assessed as accumulation of cells at viable stage at 0.5 uM incubated for 24 hrs by Annexin V-FITC/propidium iodide staining based flow cytometry analysis (reference value: 91.7%); assay type: functional
[30] = Selectivity index, ratio of IC50 for cytotoxicity against human MRC5 cells to IC50 for cytotoxicity against human A2780 cells; conditions: MRC5 cells versus A2780 cells
[31] = target: T1, Prostaglandin G/H synthase 1 (Ovis aries, UniProt P05979); assay: Inhibition of ovine COX-1
T1 sequence (P05979 whole entry): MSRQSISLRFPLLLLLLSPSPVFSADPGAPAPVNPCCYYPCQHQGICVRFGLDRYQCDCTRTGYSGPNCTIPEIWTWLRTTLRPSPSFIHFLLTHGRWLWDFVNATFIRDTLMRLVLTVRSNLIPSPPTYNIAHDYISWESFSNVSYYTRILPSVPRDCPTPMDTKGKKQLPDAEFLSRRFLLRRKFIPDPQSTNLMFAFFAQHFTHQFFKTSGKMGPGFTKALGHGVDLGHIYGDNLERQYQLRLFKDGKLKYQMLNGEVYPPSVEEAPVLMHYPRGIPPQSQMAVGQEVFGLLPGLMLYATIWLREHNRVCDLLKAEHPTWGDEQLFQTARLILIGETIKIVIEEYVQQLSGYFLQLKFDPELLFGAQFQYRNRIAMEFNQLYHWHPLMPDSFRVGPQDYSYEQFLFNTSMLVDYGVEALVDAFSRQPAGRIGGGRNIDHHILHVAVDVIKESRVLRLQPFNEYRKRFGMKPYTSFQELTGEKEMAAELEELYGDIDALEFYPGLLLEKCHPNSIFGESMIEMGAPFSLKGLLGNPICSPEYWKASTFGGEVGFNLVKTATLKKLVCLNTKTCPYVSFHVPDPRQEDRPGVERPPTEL

Rattus norvegicus [32] = assay: Antiinflammatory activity against carrageenan-induced paw edema Sprague-Dawley rat model assessed as inhibition of inflammation at 50 mg/kg, po after 3 hrs relative to control; assay type: functional; design: scale not given: the % may be the effect or the level left
[33] = Acute ulcerogenic activity in Sprague-Dawley male rat assessed as change in normal non keratinized gastric mucosa at 50 mg/kg/day, po administered for 3 days by hematoxylin and eosin staining method; assay type: toxicity, organism-based, Stomach; conditions: in vivo, 72 h, time 3 day
Sus scrofa = organism: Sus scrofa; assay: Inhibition of porcine brain tubulin polymerization at 1 uM by fluorescence-based tubulin polymerization assay
HT-29 [34] = assay: Induction of cell cycle arrest in human HT-29 cells assessed as increase the number of cells at G2/M phase at 0.500 uM incubated for 24 hrs by propidium iodide staining based flow cytometry analysis relative to control; assay type: functional; conditions: dose 0.5 µM
A2780 = assay: Cytotoxicity against human A2780 cells assessed as inhibition in cell growth incubated for 72 hrs by MTT assay; assay type: functional, cell-based; conditions: A2780, 72 h

- IC50 [31]: 2.11 µM
- inhibition (Sus scrofa): inactive
SMILES: Cc1ccc(C2SCC(=O)N2c2ccc(OCC(=O)Nc3ccc(F)cc3)cc2)cc1 (configuration not stated)
- Activity (HT-29 [1]): 6.8%
- Activity (HT-29 [2]): 7.7%
- Activity (Rattus norvegicus [3]): 0.55 mm
- Activity (Rattus norvegicus [4]): 15.3%
- selectivity ratio at 72 h [5]: 5.35
- Activity (Rattus norvegicus [6]): 0.59 mm
- UI [7]: 14.27
- Activity [8]: Non-Toxic
- Activity [9]: 2.6
- Activity (HT-29 [10]): 6.1%
- Activity (HT-29 [11]): Active
- Activity (Ehrlich [12]): Active
- Activity (HT-29 [13]): 10%
- Activity (Ehrlich [14]): Active
- Activity (HT-29 [15]): Active
- inhibition in vivo at 50 mg/kg (Ehrlich [16]): 57.2%
- Activity (Ehrlich [17]): Active
- IC50 (HT-29 [18]): 0.46 µM
- selectivity ratio at 72 h [19]: 3.04
- IC50 (MCF7): 0.81 µM
- Activity (Ehrlich [20]): Active
- Activity [21]: Toxic
- Activity [22]: 10%
- Activity (Rattus norvegicus [23]): 0.57 mm
- Activity (Rattus norvegicus [24]): 58.99%
- Activity [25]: Non-Toxic
- Activity [26]: 1.67
- IC50 at 72 h [27]: 2.46 µM
- Activity [28]: Toxic
- Activity (HT-29 [29]): 76.2%
- selectivity ratio at 72 h [30]: 0.23
- Activity (Rattus norvegicus [32]): 32.7%
- Activity [33]: Non-Toxic
- Activity (HT-29 [34]): 15.6%
- IC50 (A2780): 10.5 µM
